Assay results as given in patent publication US9815883B2, “Inhibiting peptides derived from TREM-like transcript 1 (TLT-1) and uses thereof” (Institut National de la Sante et de la Recherche Medicale …, priority 2010, dated 2017).
One block for each molecule: values may come before it.

Columns and labels:
male Balb/c mice [1] = assay: Caecal ligation and puncture (CLP) polymicrobial sepsis model; format: in vivo, mouse; conditions: heading only; evaluation without results
Experimental: Adult male Balb/c mice (20-23 g) were subjected to caecal ligation and puncture under isoflurane anaesthesia and were randomly grouped (n=5-10 per group) to receive a single LR17 (100 μg in 0.2 mL NaCl 0.9%), scrambled-LR17 ([…] in 0.2 mL NaCl 0.9%), or 0.2 mL NaCl 0.9% i.p. injection. After 24 hours, animals were killed under anaesthesia. Results are mean±SD. p values are *p<0.05, **p<0.01, ***p<0.001 compared with control animals.
(A-B) Adult male Balb/c mice (20-23 g) were subjected to caecal ligation and puncture under isoflurane anaesthesia and were randomly grouped (n=25-40 per group) to receive a LR17, scrambled-LR17, or 0.2 mL NaCl 0.9% i.p. injection at indicated times. Survival was monitored over 1 wk and analyzed by Log Rank test.
Male Balb/c mice (4-6 weeks) were anesthetized with isoflurane. The cecum was exposed through a 1.0 cm abdominal midline incision and subjected to a ligation of the distal half followed by one puncture with a G21 needle. A small amount of stool was expelled from the puncture to ensure patency. The cecum was replaced into the peritoneal cavity and the abdominal incision closed in two layers. After surgery, all mice were injected s.c. with 0.5 mL of 0.9% NaCl solution for fluid resuscitation. The animals were randomly grouped and treated LR17 or LR17-scrambled as control in 250 μL 0.9% NaCl solution and administered i.p. In order to determine the effect of various doses of LR17 at different times, mice were treated with 50, 100 or 200 μg of LR17 at H1 after surgery, or with 3 injections of 100 μg at 2, 6 and 24 hours or with 100 μg in one injection at 24 hours after CLP and then monitored for survival. Five additional animals per group were killed under anaesthesia at 24 h after CLP for the determination of bacterial count and cytokines levels. Peritoneal lavage fluid was obtained using 2 mL RPMI 1640 (EuroBio), and blood was collected by cardiac puncture. Concentrations of plasma cytokines were determined by ELISA (R&Dsystems). For the assessment of bacterial counts, blood and crushed spleen were plated in serial log dilutions on tryptic soy supplemented with 5% sheep blood agar plates. After plating, tryptic soy agar plates were incubated at 37° C. aerobically for 24 h and anaerobically for 48 h. Results are expressed as CFU per ml of blood or per gram of spleen.

TREM-1 ligand (agonist) = assay: Immunoblot revealed by mouse anti-TREM-1 mAb (TREM-1 agonist); format: binding; conditions: FIG. 1A
Source text: To determine whether sTLT-1 may specifically bind to the TREM-1 ligand and thus interfere with the TREM-1/TREM-1 ligand interaction, we used a specific TREM-1 agonist known to bind and activate TREM-1, mimicking TREM-1 engagement by its ligand.

male Balb/c mice [2] = assay: Caecal ligation and puncture (CLP) polymicrobial sepsis model; format: in vivo, mouse; conditions: LR12 in septic mice
[3] = system: TREM-1 ligand expressed on resting or thrombin-activated human platelets; assay: Flow cytometry binding of FITC-labelled peptides to human platelets; conditions: competition with unlabelled substance
Experimental: (B) Flow cytometry analysis of FITC-labelled LR17 (1 or 5 μg/mL) binding to TREM-1 ligand expressed on resting or thrombin-activated (5 UI/mL) human platelets is reversed by co-incubation with unlabelled LR17, sTLT-1 or LP17, a TREM-1 derived peptide.
Acid Citrate Dextrose blood samples were centrifuged (100 g, 10 min) to obtain Platelet-Rich Plasma. PRP was then centrifuged (550 g, 10 min) over a 36% (wt/vol) BSA gradient and platelets collected from the interphase before being washed in Tyrode's salts buffer (Sigma-Aldrich) supplemented with 5 mM EGTA. For activation, platelets were incubated for 30 minutes with 5 U/mL thrombin (Sigma-Aldrich) or 1 μg/mL E. Coli LPS (0111:B4, Sigma-Aldrich) at 37° C. and subsequently fixed with 2% (wt/vol) paraphormaldehyde (PFA, Sigma-Aldrich). Residual PFA was removed by two additional washing steps in Tyrode buffer. Activation was assessed by anti-CD62P (Beckman Coulter).
Isolated cells (neutrophils, monocytes or platelets) were blocked for aspecific binding with 10% human Ig (Sigma-Aldrich) for 1 hour on ice. Cells were incubated with recombinant soluble FITC-labelled TLT-1-peptides, FITC-labelled LP17 (or corresponding FITC-labelled scrambled peptides), PE-labelled anti-TREM-1 mAb (R&Dsystems), CD62P-FITC, CD66b-PE, CD45-PE, CD14-FITC (all from Beckman Coulter)

human neutrophils = assay: Neutrophil phagocytosis and oxidative burst (Phagotest, Bursttest); format: cell-based
Experimental: Data (mean±SD) are representative of 6 different experiments.
The quantitative determination of neutrophil phagocytosis and oxidative burst was performed by flow cytometry using the Phagotest and the Bursttest (Orpegen Pharma, Heidelberg, Germany) following the manufacturers' recommendations. A FITC-labelled opsonized E. coli was used to determine the general phagocytic activity (ingestion of one or more bacteria per cell) and the individual cellular phagocytic activity (number of bacteria per cell). For evaluation of oxidative burst activity, unlabeled opsonized E. coli, fMLP, PMA LPS and activated- or non-activated-platelets (30:1) were used as stimulants and DCFDA as a fluoregenic substrate (Invitrogen) accordingly with manufacturers' instructions.

Molecule: EDAGEY (listed as Homo sapiens) [LR6-2, 6 amino-acids derived from LR17]
- protection against polymicrobial sepsis (male Balb/c mice [1]): Protect Mice Against Polymicrobial Sepsis

- binding to the TREM-1 ligand (TREM-1 agonist, anti-TREM-1 mAb) (TREM-1 ligand (agonist)): not
Molecule: GAEREVCMDEYGALQDG (listed as Homo sapiens) [LR17-scrambled, control peptide, reference compound]

Molecule: GEYGCM (listed as Homo sapiens) [LR6-3, 6 amino-acids derived from LR17]
- protection against polymicrobial sepsis (male Balb/c mice [1]): Protect Mice Against Polymicrobial Sepsis

Molecule: LQEEDA (listed as Homo sapiens) [LR6-1, 6 amino-acids derived from LR17]
- protection against polymicrobial sepsis (male Balb/c mice [1]): Protect Mice Against Polymicrobial Sepsis

Molecule: LQEEDAGEYGCM (listed as Homo sapiens) [LR12, N-terminal 12 amino-acids from LR17]
- coagulation disorders (platelet count) (male Balb/c mice [2]; FIG. 7c): significant protection
- survival rate (male Balb/c mice [2]; FIG. 7g): improved survival rate
- organ dysfunction (lung histopathology) (male Balb/c mice [2]; FIG. 7d): significant protection
- systemic, broncho-alveolar and organ inflammation (male Balb/c mice [2]; FIGS. 7a and b): significant protection

- binding to the TREM-1 ligand (TREM-1 agonist, anti-TREM-1 mAb) (TREM-1 ligand (agonist)): able to bind the TREM-1 ligand
B1: sTLT-1: soluble TLT-1 (TREM-like transcript 1), recombinant (protein)
chain: QGIVGSLPEVLQAPVGSSILVQCHYRLQDVKAQKVWCRFLPEGCQPLVSSAVDRRAPAGRRTFLTDLGGGLLQVEMVTLQEEDAGEYGCMVDGARGPQILHRVSLNILPPEEEEETHKIGSLAENAFSDPAGSANPLEPSQDEKSIP
- effect of co-incubation on FITC-labelled LP17 binding to platelets [3]: decreased
- effect of co-incubation on FITC-labelled LR17 binding to platelets [3]: reversed
- neutrophils' phagocytic properties (human neutrophils; E. coli): did not alter
- PMA- or fMLP-induced oxidative burst (human neutrophils; not shown): no action
